From publication PMC6858373 (Scientific Reports, 2019)
Read-outs that look alike come from different tables or passages of the source.

Key:
[1] = molecular target: T1, FGF14:Nav1.6 C-tail complex (Homo sapiens, UniProt Q92915+Q9UQD0); experiment: Split-luciferase complementation assay (LCA) in Clone V double stable HEK293 cells; type: cell-based; settings: for Z-score (LCA primary screening): 30 µM, average of primary screening (n = 2), vs on-plate 0.3% DMSO; for Z-score (LCA primary screening) / IMin (% Luminescence) / EMax (% Luminescence): 384-well; for IMin (% Luminescence): antagonists; for IMin (% Luminescence) / EMax (% Luminescence): normalized to DMSO; for EMax (% Luminescence): agonists; for EC50: read-out: EC50
T1 construct: polymerase chain reaction (PCR) amplification of the FGF14 open reading frame (nt 1–855); C-terminal fragment of Nav1.6 (amino acids 1763–1976) fused with CD4ΔC-tail (amino acids 1–395); expressed in transfected cells

[2] = molecular target: full-length P. pyralis luciferase (Photinus pyralis, UniProt P08659, K549A/L550V/N119G/N50D/S548I); type: cell-based
Clone V cells = settings: for Toxicity Assay % Fluor / Toxicity Assay Z-score: human
[3] = CC_NCI screening, biological replicate Set 1, normalized to on-plate 0.3% DMSO controls
[4] = CC_NCI screening, biological replicate Set 1, normalized to on-plate 0.3% DMSO controls (n=16 per plate)
[5] = average of Set 1 and Set 2, normalized to 0.3% DMSO controls
[6] = estimated, 8-point dose response 0.25-30 µM, n = 4 per concentration, library compounds, read-out: IC50
[7] = CC_NCI screening, normalized to on-plate 0.3% DMSO controls
[8] = CC_NCI screening, LCA luminescence, biological replicate Set 1, normalized to on-plate 0.3% DMSO controls (n=16 per plate)
[9] = CC_NCI screening, LCA luminescence, biological replicate Set 2, normalized to on-plate 0.3% DMSO controls (n=16 per plate)
[10] = CC_NCI screening, LCA, biological replicate Set 1, normalized to on-plate 0.3% DMSO controls
[11] = CC_NCI screening, LCA, biological replicate Set 2, normalized to on-plate 0.3% DMSO controls
[12] = CC_NCI screening, average of Set 1 and Set 2, normalized to 0.3% DMSO controls
[13] = CC_NCI screening, full-length luciferase counter-screen luminescence, normalized to on-plate 0.3% DMSO controls
[14] = CC_NCI screening, full-length luciferase counter-screen, normalized to on-plate 0.3% DMSO controls
[15] = estimated, 8-point dose response 0.25-30 µM, n = 4 per concentration, library compounds
[16] = CC_NCI screening, biological replicate Set 2, normalized to on-plate 0.3% DMSO controls
[17] = CC_NCI screening, biological replicate Set 2, normalized to on-plate 0.3% DMSO controls (n=16 per plate)

full-length P. pyralis luciferase, sequence (P08659 whole entry N50D/N119G/S548I/K549A/L550V, looked up): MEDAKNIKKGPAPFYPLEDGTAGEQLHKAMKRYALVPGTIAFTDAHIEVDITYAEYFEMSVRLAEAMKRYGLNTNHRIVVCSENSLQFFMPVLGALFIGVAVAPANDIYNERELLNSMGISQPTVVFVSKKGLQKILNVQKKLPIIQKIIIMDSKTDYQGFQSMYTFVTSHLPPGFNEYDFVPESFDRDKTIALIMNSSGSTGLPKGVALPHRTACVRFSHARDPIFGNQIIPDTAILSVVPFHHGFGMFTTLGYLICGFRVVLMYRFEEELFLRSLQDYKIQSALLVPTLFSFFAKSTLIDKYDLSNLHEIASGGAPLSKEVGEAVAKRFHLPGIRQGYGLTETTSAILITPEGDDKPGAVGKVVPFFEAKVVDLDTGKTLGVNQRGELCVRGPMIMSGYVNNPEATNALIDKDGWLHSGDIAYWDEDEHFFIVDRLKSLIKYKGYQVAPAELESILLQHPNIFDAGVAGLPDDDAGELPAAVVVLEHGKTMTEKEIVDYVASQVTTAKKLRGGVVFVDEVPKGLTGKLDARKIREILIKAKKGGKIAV
T1 sequence (Q92915 1-252 isoform Q92915-2): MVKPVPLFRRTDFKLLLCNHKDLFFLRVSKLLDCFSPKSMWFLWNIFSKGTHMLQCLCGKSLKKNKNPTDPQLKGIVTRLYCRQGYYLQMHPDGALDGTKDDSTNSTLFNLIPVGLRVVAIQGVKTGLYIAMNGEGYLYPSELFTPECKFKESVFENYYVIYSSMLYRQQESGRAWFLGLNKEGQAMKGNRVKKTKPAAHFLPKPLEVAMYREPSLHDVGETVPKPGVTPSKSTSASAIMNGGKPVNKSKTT
T1 sequence (Q9UQD0 1763-1976 limits assumed): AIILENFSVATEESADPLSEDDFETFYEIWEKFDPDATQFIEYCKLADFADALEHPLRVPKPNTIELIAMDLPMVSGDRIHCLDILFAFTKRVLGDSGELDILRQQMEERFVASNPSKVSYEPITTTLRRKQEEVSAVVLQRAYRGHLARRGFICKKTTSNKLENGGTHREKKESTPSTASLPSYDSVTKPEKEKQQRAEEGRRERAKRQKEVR

Cc1ccc([N+](=O)[O-])cc1S(=O)(=O)N(C)/N=C/c1cnc2ccc(Br)cn12 [PIK 75, reference compound]
Z-score (LCA primary screening) [1]: −5.01
Split Luciferase Assay Z-score Set 1 [1, 3]: -6.21
Split Luciferase Assay % Lum Set 1 [1, 4]: 23.16%
IMin (% Luminescence) ([1]; Clone V cells): 38.11 % Luminescence
Split Luciferase Assay %Lum Avg [1, 5]: 38.11%
IC50 [1, 6]: 1.63 µM
Luciferase Assay % Lum (full-length luciferase counter-screen) [2, 7]: 87.68%
Luciferase Assay Z-score (full-length luciferase counter-screen) [2, 7]: -1.58
Toxicity Assay % Fluor (CTB cell viability fluorescence) (Clone V cells): 101.60%
Toxicity Assay Z-score (CTB cell viability) (Clone V cells): 0.22

COc1cc2c(cc1OC)[C@@H]1C(=O)c3ccc4c(c3O[C@@H]1CO2)C=CC(C)(C)O4 [DEGUELIN]
Split Luciferase Assay % Lum Set 1 [1, 8]: 27.50%
Split Luciferase Assay %Lum Set 2 [1, 9]: 26.01%
Split Luciferase Assay Z-score Set 1 [1, 10]: -5.86
Split Luciferase Assay Z-score Set 2 [1, 11]: -6.02
Split Luciferase Assay %Lum Avg [1, 12]: 26.76%
Luciferase Assay % Lum [2, 13]: 66.30%
Luciferase Assay Z-score [2, 14]: -4.32
Toxicity Assay % Fluor (Clone V cells): 100.58%
Toxicity Assay Z-score (Clone V cells): 0.08

O=P1(N(CCCl)CCCl)NCCCO1 (centres unmarked) [Cyclophosphamide]
Split Luciferase Assay % Lum Set 1 [1]: 107.95%
Split Luciferase Assay %Lum Avg [1]: 112.75%
Split Luciferase Assay %Lum Set 2 [1]: 117.56%
Split Luciferase Assay Z-score Set 1 [1]: 0.64
Split Luciferase Assay Z-score Set 2 [1]: 1.43
Luciferase Assay % Lum [2]: 101.62%
Luciferase Assay Z-score [2]: 0.21
Toxicity Assay % Fluor (Clone V cells): 98.87%
Toxicity Assay Z-score (Clone V cells): -0.16

O=[N+]([O-])/C=C/c1ccc2c(c1)OCO2 [MNS, reference compound]
IC50 ([1]; 384-well plates, range 0.625 - 25 μM, n=16 per concentration (Supplementary Fig. S1A), read-out: Estimated IC50): 13.3 µM
% luminescence (normalized mean and SD) ([1]; MNS 30 µM, Clone V cells, 96-well plates): 10.8% ± 3.1%
IC50 ([1]; cell density 1 × 10^4 cells per 384-well, 8 concentrations 0.625-30 µM, read-out: IC50): 3.96 µM
IC50 ([1]; cell density 2 × 10^4 cells per 384-well, 8 concentrations 0.625-30 µM, read-out: IC50): 7.49 µM
IC50 ([1]; cell density 3 × 10^4 cells per 384-well, 8 concentrations 0.625-30 µM, read-out: IC50): 9.82 µM
IC50 ([1]; cell density 4 × 10^4 cells per 384-well, 8 concentrations 0.625-30 µM, read-out: IC50): 13.3 µM
% maximal luminescence, full-length luciferase (normalized mean and SD) ([2]; MNS 30 µM, 96-well plates): 96.8% ± 2.8%

Oc1ncc(N(CCCl)CCCl)c(O)n1 [Uracil mustard]
Split Luciferase Assay % Lum Set 1 [1]: 76.42%
Split Luciferase Assay %Lum Avg [1]: 74.62%
Split Luciferase Assay %Lum Set 2 [1]: 72.82%
Split Luciferase Assay Z-score Set 1 [1]: -1.91
Split Luciferase Assay Z-score Set 2 [1]: -2.21
Luciferase Assay % Lum [2]: 97.98%
Luciferase Assay Z-score [2]: -0.26

CNC(=O)c1cc(Oc2ccc(NC(=O)Nc3ccc(Cl)c(C(F)(F)F)c3)cc2)ccn1 [Sorafenib, reference compound]
Z-score (LCA primary screening) [1]: −7.62
Split Luciferase Assay % Lum Set 1 [1, 8]: 5.76%
Split Luciferase Assay % Lum Set 1 ([1]; CC_NCI screening, LCA luminescence, biological replicate Set 1, normalized to on-plate 0.3% DMSO controls (n=16 per plate), listed as SORAFENIB): 4.67%
Split Luciferase Assay %Lum Set 2 [1, 9]: 15.60%
Split Luciferase Assay %Lum Set 2 ([1]; CC_NCI screening, LCA luminescence, biological replicate Set 2, normalized to on-plate 0.3% DMSO controls (n=16 per plate), listed as SORAFENIB): 7.28%
Split Luciferase Assay Z-score Set 1 [1, 10]: -7.62
Split Luciferase Assay Z-score Set 1 ([1]; CC_NCI screening, LCA, biological replicate Set 1, normalized to on-plate 0.3% DMSO controls, listed as SORAFENIB): -7.70
Split Luciferase Assay Z-score Set 2 [1, 11]: -6.87
Split Luciferase Assay Z-score Set 2 ([1]; CC_NCI screening, LCA, biological replicate Set 2, normalized to on-plate 0.3% DMSO controls, listed as SORAFENIB): -7.54
Split Luciferase Assay %Lum Avg [1, 12]: 10.68%
Split Luciferase Assay %Lum Avg ([1]; CC_NCI screening, average of Set 1 and Set 2, normalized to 0.3% DMSO controls, listed as SORAFENIB): 5.98%
IMin (% Luminescence) ([1]; Clone V cells): 5.98 % Luminescence
IC50 [1, 6]: 3.98 µM
Luciferase Assay % Lum [2, 13]: 88.55%
Luciferase Assay % Lum ([2]; CC_NCI screening, full-length luciferase counter-screen luminescence, normalized to on-plate 0.3% DMSO controls, listed as SORAFENIB): 91.34%
Luciferase Assay Z-score [2, 14]: -1.47
Luciferase Assay Z-score ([2]; CC_NCI screening, full-length luciferase counter-screen, normalized to on-plate 0.3% DMSO controls, listed as SORAFENIB): -1.11

CCn1c(-c2nonc2N)nc2cnc(Oc3cccc(NC(=O)c4ccc(OCCN5CCOCC5)cc4)c3)cc21 [GSK 269962 A, reference compound]
Z-score (LCA primary screening) [1]: −5.77
IMin (% Luminescence) ([1]; Clone V cells): 28.81 % Luminescence
IC50 [1, 6]: 24.7 µM

CCC1=C[C@@H]2CN(C1)Cc1c([nH]c3ccccc13)[C@@](C(=O)OC)(c1cc3c(cc1OC)N(C)[C@H]1[C@@](O)(C(=O)OC)[C@H](OC(C)=O)[C@]4(CC)C=CCN5CC[C@]31[C@@H]54)C2 [Vinorelbine, reference compound]
Z-score (LCA primary screening) [1]: 8.79
EMax (% Luminescence) ([1]; Clone V cells): 208.53 % Luminescence
EC50 [1, 15]: 1.55 µM

COc1cc2c(N3CCN(C(=O)Nc4ccc(OC(C)C)cc4)CC3)ncnc2cc1OCCCN1CCCCC1 [TANDUTINIB]
Split Luciferase Assay % Lum Set 1 [1, 8]: 92.73%
Split Luciferase Assay %Lum Set 2 [1, 9]: 92.59%
Split Luciferase Assay Z-score Set 1 [1, 10]: -0.59
Split Luciferase Assay Z-score Set 2 [1, 11]: -0.60
Split Luciferase Assay %Lum Avg [1, 12]: 92.66%
Luciferase Assay % Lum [2, 13]: 88.98%
Luciferase Assay Z-score [2, 14]: -1.41

Plicamycin
Split Luciferase Assay Z-score Set 1 [1, 3]: -1.20
Split Luciferase Assay % Lum Set 1 [1, 4]: 85.12%
Split Luciferase Assay Z-score Set 2 [1, 16]: -1.11
Split Luciferase Assay %Lum Set 2 [1, 17]: 86.35%
Split Luciferase Assay %Lum Avg [1, 5]: 85.73%
Luciferase Assay % Lum (full-length luciferase counter-screen) [2, 7]: 92.59%
Luciferase Assay Z-score (full-length luciferase counter-screen) [2, 7]: -0.95

Cc1ccc(NC(=O)c2ccc(CN3CCN(C)CC3)cc2)cc1Nc1nccc(-c2cccnc2)n1 [Imatinib]
Luciferase Assay % Lum [2]: 90.17%
Luciferase Assay Z-score [2]: -1.26

CS(=O)(=O)N1CCN(Cc2cc3nc(-c4cccc5[nH]ncc45)nc(N4CCOCC4)c3s2)CC1 [GDC 0941]
Luciferase Assay % Lum (full-length luciferase counter-screen) [2, 7]: 84.36%
Luciferase Assay Z-score (full-length luciferase counter-screen) [2, 7]: -2.00

O=C(NOC[C@H](O)CO)c1ccc(F)c(F)c1Nc1ccc(I)cc1F [PD 0325901]
Toxicity Assay % Fluor (Clone V cells; 16 h, 30 µM): 83.92%
Toxicity Assay Z-score (Clone V cells; 16 h, 30 µM): -2.25

N.N.[Cl][Pt][Cl] [Cisplatin]
Split Luciferase Assay % Lum Set 1 [1, 8]: 89.47%
Split Luciferase Assay %Lum Set 2 [1, 9]: 98.83%
Split Luciferase Assay Z-score Set 1 [1, 10]: -0.85
Split Luciferase Assay Z-score Set 2 [1, 11]: -0.10
Split Luciferase Assay %Lum Avg [1, 12]: 94.15%
Luciferase Assay % Lum [2, 13]: 99.37%
Luciferase Assay Z-score [2, 14]: -0.08

NC(=O)c1ccc2nc(-c3ccc(Oc4ccc(Cl)cc4)cc3)[nH]c2c1 [CHK2 INHIBITOR II]
Toxicity Assay % Fluor (CTB cell viability fluorescence) (Clone V cells): 112.91%
Toxicity Assay Z-score (CTB cell viability) (Clone V cells): 1.80

O=c1cc(N2CCOCC2)nc2c3ccccc3ccn12 [COMPOUND 401]
Split Luciferase Assay Z-score Set 1 [1, 3]: -0.15
Split Luciferase Assay % Lum Set 1 [1, 4]: 98.17%
Split Luciferase Assay Z-score Set 2 [1, 16]: -0.43
Split Luciferase Assay %Lum Set 2 [1, 17]: 94.67%
Split Luciferase Assay %Lum Avg [1, 5]: 96.42%
Luciferase Assay % Lum (full-length luciferase counter-screen) [2, 7]: 93.50%
Luciferase Assay Z-score (full-length luciferase counter-screen) [2, 7]: -0.83

CC[C@]1(O)C[C@@H]2CN(CCc3c([nH]c4ccccc34)[C@@](C(=O)OC)(c3cc4c(cc3OC)N(C)[C@H]3[C@@](O)(C(=O)OC)[C@H](OC(C)=O)[C@]5(CC)C=CCN6CC[C@]43[C@@H]65)C2)C1 [Vinblastine, reference compound]
Z-score (LCA primary screening) [1]: 7.42
EMax (% Luminescence) ([1]; Clone V cells): 191.58 % Luminescence
EC50 [1, 15]: 20.6 µM

CC[C@]1(O)C[C@H]2CN(CCc3c([nH]c4ccccc34)[C@@](C(=O)OC)(c3cc4c(cc3OC)N(C=O)[C@H]3[C@@](O)(C(=O)OC)[C@H](OC(C)=O)[C@]5(CC)C=CCN6CC[C@]43[C@@H]65)C2)C1 [Vincristine, reference compound]
Z-score (LCA primary screening) [1]: 7.99
EMax (% Luminescence) ([1]; Clone V cells): 198.49 % Luminescence
EC50 [1, 15]: 0.27 µM

CCN(CC)CCNC(=O)c1c(C)[nH]c(/C=C2\C(=O)Nc3ccc(F)cc32)c1C [Sunitinib]
Split Luciferase Assay % Lum Set 1 [1, 8]: 68.81%
Split Luciferase Assay %Lum Set 2 [1, 9]: 72.82%
Split Luciferase Assay Z-score Set 1 [1, 10]: -2.52
Split Luciferase Assay Z-score Set 2 [1, 11]: -2.21
Split Luciferase Assay %Lum Avg [1, 12]: 70.82%
Luciferase Assay % Lum [2, 13]: 95.10%
Luciferase Assay Z-score [2, 14]: -0.63

CCc1c2c(nc3ccc(OC(=O)N4CCC(N5CCCCC5)CC4)cc13)-c1cc3c(c(=O)n1C2)COC(=O)[C@]3(O)CC.Cl [Irinotecan hydrochloride]
Luciferase Assay % Lum [2, 13]: 96.04%
Luciferase Assay Z-score [2, 14]: -0.51
